Assay results from patent US20070128217A1 (priority 2003, published 2007).

Tests used:
[1] = tested on: antibodies in sera from SARS patients (sera 1a, 1b, 2, 6, 37, 62, London, SARS-yellow, SARS-green); assay type: binding, human; design: Binding of serum 6 to linear peptides of protein X1 of SARS-CoV Urbani / Binding of serum 37 to linear peptides of protein X1 of SARS-CoV Urbani / Binding of serum 6 to looped/cyclic peptide (PEPSCAN-ELISA) / Binding of serum 37 to looped/cyclic peptide (PEPSCAN-ELISA) / Binding of serum 37 to looped/cyclic peptides of protein X1 of SARS-CoV Urbani / Binding of serum 6 to linear peptides of protein X2 / Binding of serum 37 to linear peptides of protein X2 / Binding of serum 37 to looped/cyclic peptides of protein X2 of SARS-CoV Urbani / Binding of serum 6 to linear peptides of protein M of SARS-CoV Urbani / Binding of serum 37 to linear peptides of protein M of SARS-CoV Urbani / Binding of serum 6 to looped/cyclic peptides of protein M of SARS-CoV Urbani / Binding of serum 37 to looped/cyclic peptides of protein M of SARS-CoV Urbani / Binding of serum 6 to linear peptides of protein X3 of SARS-CoV Urbani / Binding of serum 37 to linear peptides of protein X3 of SARS-CoV Urbani / Binding of serum 37 to looped/cyclic peptides of protein X3 of SARS-CoV Urbani / Binding of serum 6 to linear peptides of protein X4 of SARS-CoV Urbani / Binding of serum 37 to linear peptides of protein X4 of SARS-CoV Urbani / Binding of serum 37 to looped/cyclic peptides of protein X4 of SARS-CoV Urbani / Binding of serum 6 to linear peptides of protein X5 of SARS-CoV Urbani / Binding of serum 37 to linear peptides of protein X5 of SARS-CoV Urbani / Binding of serum 37 to looped/cyclic peptides of protein X5 of SARS-CoV Urbani / Binding of serum 6 to linear peptides of protein N of SARS-CoV Urbani / Binding of serum 37 to linear peptides of protein N of SARS-CoV Urbani / Binding of serum 6 to linear peptide (PEPSCAN-ELISA) / Binding of serum 1a to looped/cyclic peptides of protein N of SARS-CoV Urbani / Binding of serum 1b to looped/cyclic peptides of protein N of SARS-CoV Urbani / Binding of serum 2 to looped/cyclic peptides of protein N of SARS-CoV Urbani / Binding of serum 6 to looped/cyclic peptides of protein N of SARS-CoV Urbani / Binding of serum 37 to looped/cyclic peptides of protein N of SARS-CoV Urbani / Binding of serum 62 to looped/cyclic peptides of protein N of SARS-CoV Urbani / Binding of serum London to looped/cyclic peptides of protein N of SARS-CoV Urbani / Binding of serum SARS-green to looped/cyclic peptides of protein N of SARS-CoV Urbani: unit not given here
[2] = tested on: rabbit serum obtained by immunizing a rabbit with the SARS-CoV strain Frankfurt 1; assay type: binding; design: Binding of a rabbit serum to linear peptides / Binding of a rabbit serum to looped peptides / Rabbit serum linear peptides / Rabbit serum looped peptides / Binding of a rabbit serum to linear peptides of protein N of SARS-CoV Urbani (Rabbit serum linear peptides) / Binding of a rabbit serum to looped/cyclic peptides of protein N of SARS-CoV Urbani (Rabbit serum looped peptides): unit not given here
[3] = tested on: control sera (pooled serum of ten healthy LUMC hospital workers; commercial negative donor pooled serum from the Dutch bloodbank); assay type: binding, human; design: Binding of Control serum LUMC to linear peptides / Binding of Control serum Blood-bank to linear peptides / Binding of Control serum LUMC to looped peptides / Binding of Control Serum Blood-Bank to Looped peptides / Binding of Control serum LUMC to linear peptides of the protein M of SARS-CoV Urbani / Binding of Control serum Blood-bank to linear peptides of the protein M of SARS-CoV Urbani / Binding of Control serum LUMC to looped peptides of the protein M of SARS-CoV Urbani / Binding of Control Serum Blood-Bank to Looped peptides of the protein M of SARS-CoV Urbani: unit not given here
[4] = tested on: recombinant human anti-SARS-CoV antibody 03-018; assay type: binding; design: Binding of antibody 03-018 to linear peptides of the N protein of SARS-CoV Urbani / Binding of antibody 03-018 to looped/cyclic peptides of the N protein of SARS-CoV Urbani: unit not given here

Row | Sequence | Binding of serum 1a to linear peptide (PEPSCAN-ELISA) [1] | Binding of serum 1a to looped/cyclic peptides of protein N of SARS-CoV Urbani [1] | Binding of serum 1b to linear peptide (PEPSCAN-ELISA) [1] | Binding of serum 1b to looped/cyclic peptides of protein N of SARS-CoV Urbani [1] | Binding of serum 2 to linear peptide (PEPSCAN-ELISA) [1] | Binding of serum 2 to looped/cyclic peptides of protein N of SARS-CoV Urbani [1] | Binding of serum 6 to looped/cyclic peptides of protein N of SARS-CoV Urbani [1] | Binding of serum 37 to looped/cyclic peptides of protein N of SARS-CoV Urbani [1] | Binding of serum 62 to looped/cyclic peptides of protein N of SARS-CoV Urbani [1] | Binding of serum London to looped/cyclic peptides of protein N of SARS-CoV Urbani [1] | Binding of serum SARS-green to looped/cyclic peptides of protein N of SARS-CoV Urbani [1] | Binding of serum SARS-yellow to looped/cyclic peptides of protein N of SARS-CoV Urbani [1] | Binding of a rabbit serum to linear peptides of protein N of SARS-CoV Urbani (Rabbit serum linear peptides) [2] | Binding of a rabbit serum to looped/cyclic peptides of protein N of SARS-CoV Urbani (Rabbit serum looped peptides) [2] | Binding of Control Serum Blood-Bank to Looped peptides [3] | Binding of Control serum Blood-bank to linear peptides [3] | Binding of Control serum LUMC to linear peptides [3] | Binding of Control serum LUMC to looped peptides [3] | Binding of antibody 03-018 to linear peptides of the N protein of SARS-CoV Urbani [4] | Binding of antibody 03-018 to looped/cyclic peptides of the N protein of SARS-CoV Urbani [4] | other results
1 | QQQGQTVTKKSAAEA | 0.6 | 0.5 | 0.2 | 0.3 | 0.5 | 0.7 | 0.5 | 0.6 | 0.7 | 0.6 | 0.9 | 0.6 | 0.0 | 0.0 | 0.6 | 0.6 | 0.5 | 0.6 | 0.1 | 0.2 | Binding of serum 6 to linear peptide (PEPSCAN-ELISA) [1]: 0.2; Binding of serum 37 to linear peptide (PEPSCAN-ELISA) [1]: 0.5; Binding of serum 62 to linear peptide (PEPSCAN-ELISA) [1]: 0.5; Binding of serum London to linear peptide (PEPSCAN-ELISA) [1]: 0.6; Binding of serum SARS-green to linear peptide (PEPSCAN-ELISA) [1]: 0.3; Binding of serum SARS-yellow to linear peptide (PEPSCAN-ELISA) [1]: 0.6
2 | QQQQGQTVTKKSAAE | 0.8 | 0.3 | 0.3 | 0.1 | 0.7 | 0.3 | 0.1 | 0.3 | 0.2 | 0.2 | 0.0 | 0.1 | 0.3 | 0.0 | 0.2 | 0.6 | 0.6 | 0.2 | 0.1 | 0.2 | Binding of serum 6 to linear peptide (PEPSCAN-ELISA) [1]: 0.2; Binding of serum 37 to linear peptide (PEPSCAN-ELISA) [1]: 0.7; Binding of serum 62 to linear peptide (PEPSCAN-ELISA) [1]: 0.7; Binding of serum London to linear peptide (PEPSCAN-ELISA) [1]: 0.7; Binding of serum SARS-green to linear peptide (PEPSCAN-ELISA) [1]: 0.3; Binding of serum SARS-yellow to linear peptide (PEPSCAN-ELISA) [1]: 0.9
3 | QRQKKQPTVTLLPAA | – | – | – | – | – | – | – | – | – | – | – | – | 0.2 | 0.7 | – | – | – | – | 0.1 | 0.3 | Binding of serum 1a to linear peptides of protein N of SARS-CoV Urbani [1]: 0.3; Binding of serum 1b to linear peptides of protein N of SARS-CoV Urbani [1]: 0.1; Binding of serum 2 to linear peptides of protein N of SARS-CoV Urbani [1]: 0.3; Binding of serum 6 to linear peptides of protein N of SARS-CoV Urbani [1]: 0.2; Binding of serum 37 to linear peptides of protein N of SARS-CoV Urbani [1]: 0.7; Binding of serum 62 to linear peptides of protein N of SARS-CoV Urbani [1]: 0.8; Binding of serum London to linear peptides of protein N of SARS-CoV Urbani [1]: 0.6; Binding of serum SARS-green to linear peptides of protein N of SARS-CoV Urbani [1]: 0.7; Binding of serum SARS-yellow to linear peptides of protein N of SARS-CoV Urbani [1]: 0.6; Recognition of the peptide by sera of SARS-CoV infected individuals, and form (linear, looped/cyclic) in which it is recognized [1]: recognized in looped/cyclic form; Control Serum Blood-Bank Looped peptides [3]: 1.1; Control serum Blood-bank linear peptides [3]: 0.8; Control serum LUMC linear peptides [3]: 0.7; Control serum LUMC looped peptides [3]: 0.8
4 | QRSAPRITFGGPTDS | – | 0.4 | – | 0.3 | – | 0.4 | 0.4 | 0.7 | 0.5 | 0.9 | 0.4 | 0.6 | 0.3 | 1.2 | 0.7 | 0.6 | 0.5 | 0.7 | – | – | Binding of serum 1a to linear peptides of protein N of SARS-CoV Urbani [1]: 0.2; Binding of serum 1b to linear peptides of protein N of SARS-CoV Urbani [1]: 0.1; Binding of serum 2 to linear peptides of protein N of SARS-CoV Urbani [1]: 0.1; Binding of serum 6 to linear peptides of protein N of SARS-CoV Urbani [1]: 0.1; Binding of serum 37 to linear peptides of protein N of SARS-CoV Urbani [1]: 0.6; Binding of serum 62 to linear peptides of protein N of SARS-CoV Urbani [1]: 0.6; Binding of serum London to linear peptides of protein N of SARS-CoV Urbani [1]: 0.5; Binding of serum SARS-green to linear peptides of protein N of SARS-CoV Urbani [1]: 0.2; Binding of serum SARS-yellow to linear peptides of protein N of SARS-CoV Urbani [1]: 0.5; Recognition of the peptide by antibody 03-018 [4]: recognized
